Measured values taken from patent publication US20240058347A1, “DOSAGES FOR HDAC TREATMENT WITH REDUCED SIDE EFFECTS” (VIRACTA THERAPEUTICS, INC., priority 2019, published 2024).

What was measured:
[1] = 30 mg twice weekly; cited from earlier work
[2] = 1,000 mg/m^2 IV once daily on days 1 to 5 of a 21-day cycle; cited from earlier work
[3] = in vivo; cited from earlier work
HDAC11 = molecular target: T1, HDAC11 (Homo sapiens, UniProt Q96DB2); experiment: in vitro HDAC inhibition assay (fluorescence), HDAC11; assay type: biochemical; conditions: read-out: Percentage Inhibition
T1 sequence (Q96DB2 1-347): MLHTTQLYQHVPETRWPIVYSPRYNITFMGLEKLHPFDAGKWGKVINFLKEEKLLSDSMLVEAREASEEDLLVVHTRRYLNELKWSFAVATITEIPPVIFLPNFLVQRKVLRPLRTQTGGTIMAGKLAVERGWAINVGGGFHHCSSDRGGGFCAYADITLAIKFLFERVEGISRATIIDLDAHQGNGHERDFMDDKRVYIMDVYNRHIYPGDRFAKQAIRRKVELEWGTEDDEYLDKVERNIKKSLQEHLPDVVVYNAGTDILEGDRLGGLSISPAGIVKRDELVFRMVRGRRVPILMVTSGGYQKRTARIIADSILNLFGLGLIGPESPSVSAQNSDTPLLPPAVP
Method: (§1) Briefly, all of the compounds are dissolved in DMSO. A series of dilutions of the compounds were prepared with 10% DMSO in HDAC assay buffer and 5 μl of the dilution was added to a 50 μl reaction so that the final concentration of DMSO is 1% in all of reactions. The compounds were pre-incubated in duplicate at RT for 1 hour in a mixture containing HDAC assay buffer, 5 μg BSA, HDAC enzyme (see Table 7) and a the particular HDACi. After 1 hour, the enzymatic reactions were initiated by the addition of HDAC substrate (BPS Bioscience) to a final concentration of 10 μM or 2 μM. The enzymatic reaction proceeded for 30 minutes at 37° C.
(§2) HDAC activity assays were performed in duplicates at each concentration. The fluorescent intensity data were analyzed using the computer software, Graphpad Prism. In the absence of the compound, the fluorescent intensity (Ft) in each data set was defined as 100% activity. In the absence of HDAC, the fluorescent intensity (Fb) in each data set was defined as 0% activity. The percent activity in the presence of each compound was calculated according to the following equation: % activity=(F−Fb)/(Ft−Fb), where F=the fluorescent intensity in the presence of the compound. […]

HDAC4 = HDAC4 (Homo sapiens, UniProt P56524); experiment: in vitro HDAC inhibition assay (fluorescence), HDAC4; assay type: biochemical; conditions: read-out: Percentage Inhibition
Method: as §1, §2

HDAC7 = molecular target: T2, HDAC7 (Homo sapiens, UniProt Q8WUI4); experiment: in vitro HDAC inhibition assay (fluorescence), HDAC7; assay type: biochemical; conditions: read-out: Percentage Inhibition
T2 sequence (Q8WUI4 1-952): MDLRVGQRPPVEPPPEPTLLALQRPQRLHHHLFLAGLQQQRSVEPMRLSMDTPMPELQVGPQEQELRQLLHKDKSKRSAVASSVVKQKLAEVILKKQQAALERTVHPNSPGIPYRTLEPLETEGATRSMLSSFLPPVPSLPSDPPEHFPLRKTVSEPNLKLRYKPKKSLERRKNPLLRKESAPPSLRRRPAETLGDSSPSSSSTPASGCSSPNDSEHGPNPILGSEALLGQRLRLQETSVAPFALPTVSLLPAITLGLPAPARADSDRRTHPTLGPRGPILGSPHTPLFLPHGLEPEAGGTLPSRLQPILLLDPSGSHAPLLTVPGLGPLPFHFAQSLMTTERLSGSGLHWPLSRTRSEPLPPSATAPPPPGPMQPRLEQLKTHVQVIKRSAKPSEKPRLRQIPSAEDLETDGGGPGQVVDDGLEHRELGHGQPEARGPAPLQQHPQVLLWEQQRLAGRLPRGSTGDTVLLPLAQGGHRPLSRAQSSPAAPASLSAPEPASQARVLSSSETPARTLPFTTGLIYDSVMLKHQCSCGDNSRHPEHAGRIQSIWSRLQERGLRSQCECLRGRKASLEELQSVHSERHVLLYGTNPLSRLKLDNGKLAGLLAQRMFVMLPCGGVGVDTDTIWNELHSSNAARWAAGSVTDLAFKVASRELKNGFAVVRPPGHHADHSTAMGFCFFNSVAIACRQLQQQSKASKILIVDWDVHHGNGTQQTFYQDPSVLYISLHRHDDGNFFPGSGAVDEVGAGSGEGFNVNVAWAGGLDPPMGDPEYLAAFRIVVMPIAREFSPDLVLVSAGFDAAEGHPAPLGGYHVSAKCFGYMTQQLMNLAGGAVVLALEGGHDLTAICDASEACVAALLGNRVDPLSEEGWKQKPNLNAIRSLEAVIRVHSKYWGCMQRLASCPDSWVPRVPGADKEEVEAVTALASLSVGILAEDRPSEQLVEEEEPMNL
Method: as §1, §2

HDAC9 = HDAC9 (Homo sapiens, UniProt Q9UKV0); experiment: in vitro HDAC inhibition assay (fluorescence), HDAC9; assay type: biochemical; conditions: read-out: Percentage Inhibition
Method: as §1, §2

HDAC4, sequence (P56524 whole entry): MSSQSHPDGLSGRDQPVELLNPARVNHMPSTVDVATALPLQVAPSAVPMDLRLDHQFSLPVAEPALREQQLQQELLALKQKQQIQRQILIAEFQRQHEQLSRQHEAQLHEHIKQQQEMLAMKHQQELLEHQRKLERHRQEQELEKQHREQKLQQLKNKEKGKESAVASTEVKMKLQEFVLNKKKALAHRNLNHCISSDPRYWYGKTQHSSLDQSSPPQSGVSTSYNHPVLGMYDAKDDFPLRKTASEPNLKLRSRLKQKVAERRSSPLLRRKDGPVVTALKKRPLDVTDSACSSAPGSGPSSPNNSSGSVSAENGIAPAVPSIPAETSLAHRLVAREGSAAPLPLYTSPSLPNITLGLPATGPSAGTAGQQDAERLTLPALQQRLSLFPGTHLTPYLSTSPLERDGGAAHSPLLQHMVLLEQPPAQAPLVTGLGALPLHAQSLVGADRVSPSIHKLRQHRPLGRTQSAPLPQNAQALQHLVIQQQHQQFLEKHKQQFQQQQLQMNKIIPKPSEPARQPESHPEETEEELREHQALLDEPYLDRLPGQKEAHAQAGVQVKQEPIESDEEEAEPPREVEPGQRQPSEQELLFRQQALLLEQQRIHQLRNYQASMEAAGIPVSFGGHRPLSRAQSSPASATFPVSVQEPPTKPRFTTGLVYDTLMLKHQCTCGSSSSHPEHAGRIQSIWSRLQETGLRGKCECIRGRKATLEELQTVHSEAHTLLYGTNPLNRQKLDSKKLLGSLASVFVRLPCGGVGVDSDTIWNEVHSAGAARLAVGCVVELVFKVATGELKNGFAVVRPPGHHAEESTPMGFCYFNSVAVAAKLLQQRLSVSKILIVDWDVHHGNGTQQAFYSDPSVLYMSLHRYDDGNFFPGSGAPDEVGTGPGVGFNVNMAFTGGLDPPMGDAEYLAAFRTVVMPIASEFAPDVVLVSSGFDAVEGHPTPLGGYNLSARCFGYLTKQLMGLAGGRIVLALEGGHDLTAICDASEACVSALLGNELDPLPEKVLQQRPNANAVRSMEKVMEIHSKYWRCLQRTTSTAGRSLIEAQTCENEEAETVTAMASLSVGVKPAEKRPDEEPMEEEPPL
HDAC9, sequence (Q9UKV0 whole entry): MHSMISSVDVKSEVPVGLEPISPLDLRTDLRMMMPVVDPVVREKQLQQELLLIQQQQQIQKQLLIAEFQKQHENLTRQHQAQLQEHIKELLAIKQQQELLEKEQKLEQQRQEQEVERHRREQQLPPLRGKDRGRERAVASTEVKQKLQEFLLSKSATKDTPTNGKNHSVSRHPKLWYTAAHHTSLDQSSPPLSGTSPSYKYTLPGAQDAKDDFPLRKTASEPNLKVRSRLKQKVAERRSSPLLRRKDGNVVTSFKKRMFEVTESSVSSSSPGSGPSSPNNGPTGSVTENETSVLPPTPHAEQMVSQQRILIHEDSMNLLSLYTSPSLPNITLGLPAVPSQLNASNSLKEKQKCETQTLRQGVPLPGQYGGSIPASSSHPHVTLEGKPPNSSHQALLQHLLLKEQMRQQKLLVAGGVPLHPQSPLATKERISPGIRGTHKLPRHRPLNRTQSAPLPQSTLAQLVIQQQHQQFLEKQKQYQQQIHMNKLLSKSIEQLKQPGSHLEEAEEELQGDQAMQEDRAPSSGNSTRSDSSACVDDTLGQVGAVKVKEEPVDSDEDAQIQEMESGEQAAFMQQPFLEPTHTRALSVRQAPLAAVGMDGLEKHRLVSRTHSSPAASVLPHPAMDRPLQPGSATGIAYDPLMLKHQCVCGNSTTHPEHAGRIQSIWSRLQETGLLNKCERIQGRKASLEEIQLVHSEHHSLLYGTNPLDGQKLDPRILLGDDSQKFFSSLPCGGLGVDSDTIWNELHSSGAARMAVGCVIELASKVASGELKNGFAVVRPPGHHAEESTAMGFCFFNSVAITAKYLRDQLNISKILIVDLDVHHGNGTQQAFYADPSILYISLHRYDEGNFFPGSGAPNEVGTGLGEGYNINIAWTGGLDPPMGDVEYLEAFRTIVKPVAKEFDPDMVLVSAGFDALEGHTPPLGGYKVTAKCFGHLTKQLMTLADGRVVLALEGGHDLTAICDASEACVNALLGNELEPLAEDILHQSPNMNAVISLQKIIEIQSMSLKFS

In the case of Nc1cc(F)ccc1NC(=O)c1ccc(CNC(=O)/C=C/c2cccnc2)cc1 [Chidamide, chidamide], the SAE rate [1] is listed as 5%.
For O=C(/C=C/c1cccc(S(=O)(=O)Nc2ccccc2)c1)NO [belinostat], the “Grade 3 or 4 adverse effect rate” value [2] is given as 47%.
For Nc1ccccc1NC(=O)c1ccc(CNC(=O)OCc2cccnc2)cc1 [MS-275, entinostat], the elimination half-life [3] is listed as “approximately 36 hours”.
With C/C=C1\NC(=O)[C@H]2CSSCC/C=C/[C@H](CC(=O)N[C@H](C(C)C)C(=O)N2)OC(=O)[C@H](C(C)C)NC1=O [FK228, romidepsin, reference compound] the inhibition at 100 µM (HDAC11) was < 17%, the inhibition at 100 µM (HDAC4) was < 17% and the inhibition at 100 µM (HDAC7) was < 17%. For the same compound, the inhibition at 100 µM (HDAC9) was < 17%.
